Values of other authors in patent publication US7220858B2, “Synthesis of hydrazine and chlorinated derivatives of bicyclic pyridazines” (Barbeau Pharma, Inc., priority 2003, dated 2007).
Like-named read-outs stand apart in the source and are kept apart here.

Columns and labels:
[1] = in the presence of oxygen and metal ions such as Cu+2, Fe+2, and Fe+3

NNc1nncc2ccccc12 [Hydralazine, 1-hydrazinophthalazine]
onset of action (vascular smooth muscle; given intravenously): 10 to 20 min | metabolism and excretion (vascular smooth muscle; in the body): extensively metabolized in the body to products that are excreted predominantly in the urine | duration of action (vascular smooth muscle; in vivo): 3 to 4 h | onset of action (vascular smooth muscle; in vivo): 10 to 30 min | time to maximum hypotensive effect (vascular smooth muscle; in vivo): 10 to 80 min | oxidation [1]: oxidizes rapidly
